According to PubChem BioAssay (NCI):
Several values for one entry are separate records, joined by “and”; a condition that tells them apart may be missing. Equal entries are not always repeated.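 A five-concentration, 48-hour dose response in 96-well plates underlies each endpoint, interpolated linearly between surrounding concentrations. GI50 = concentration required for 50% inhibition of growth. Definition used: TGI = concentration required for complete inhibition of growth.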

Legend:
Assay in all cases: NCI tumour cell line growth inhibition, 48 h
M14 melanoma = tested on: M14 melanoma
MALME-3M melanoma = tested on: MALME-3M melanoma
RXF 393 renal = tested on: RXF 393 renal
IGROV1 ovarian = tested on: IGROV1 ovarian
SF-295 CNS = tested on: SF-295 CNS
ACHN renal = tested on: ACHN renal
SR leukemia = tested on: SR leukemia
NCI-H226 lung = tested on: NCI-H226 lung
MOLT-4 leukemia = tested on: MOLT-4 leukemia
NCI-H522 lung = tested on: NCI-H522 lung

Row | Compound | TGI (M14 melanoma) [nM] | TGI (MALME-3M melanoma) | TGI (RXF 393 renal) [nM] | TGI (IGROV1 ovarian) [nM] | TGI (SF-295 CNS) [nM] | TGI (ACHN renal) | TGI (SR leukemia) [nM] | TGI (NCI-H226 lung) | TGI (MOLT-4 leukemia) [nM] | TGI (NCI-H522 lung) [nM] | GI50 (M14 melanoma) [nM] | GI50 (MALME-3M melanoma) [nM] | GI50 (RXF 393 renal) [nM] | GI50 (IGROV1 ovarian) [nM] | GI50 (SF-295 CNS) [nM] | GI50 (ACHN renal) [nM] | GI50 (SR leukemia) [nM] | GI50 (NCI-H226 lung) [nM] | GI50 (MOLT-4 leukemia) [nM] | GI50 (NCI-H522 lung) [nM]
1 | O=C1c2cccc3cc([N+](=O)[O-])cc(c23)C(=O)N1O | > 100000 | > 100000 nM | > 100000 | > 100000 | > 100000 | > 100000 nM | > 100000 | > 100000 nM | > 100000 | > 100000 | – | – | – | – | – | – | – | – | – | –
2 | COc1ccc(C2C3=C(COC3=O)N(CCO)c3cc4c(cc32)OCCO4)cc1OC (configuration not stated) | > 30700 | > 50000 nM | 2860 | 14900 | 12000 | > 50000 nM | 35800 | > 50000 nM | > 47400 | 1380 | 1940 | > 50000 | 807 | 1910 | 922 | > 50000 | 741 | > 50000 | 2850 | 270
3 | N#CC[C@H](C1CCCC1)n1cc(-c2ncnc3[nH]ccc23)cn1 | > 88600 | > 100000 nM | 27200 | > 100000 | 51400 | > 100000 nM | 41600 | > 92500 nM | > 78800 | 57900 | 30300 | 34100 | 4060 | 34000 | 19400 | 23300 | 4040 | 9280 | 20700 | 21000
4 | COc1cc2c3c(c1O)C1(C=CC(=O)C=C1)CC3N(C)CC2 (configuration not stated) | 24500 | 24800 nM | 19400 | 25400 | 24300 | 43400 nM | 25800 | > 100000 nM | 37300 | 7210 | – | – | – | – | – | – | – | – | – | –
5 | ClC1=C(Cl)C(Cl)=C(Cl)C1=Cc1ccc(Cl)cc1 | 904 | 3600 nM | 842 | 2110 | 8850 | 1070 nM | 1720 | 1860 nM | 2960 | 655 | 287 | 1420 | 267 | 396 | 2270 | 327 | 253 | 389 | 356 | 230
6 | C[C@@H](Oc1cc(-c2cnn(C3CC4(CCCNC4)C3)c2)cnc1N)c1c(Cl)ccc(F)c1Cl (some centres not stated) | 2660 | 3120 nM | 2620 | 13600 | 2130 | 4490 nM | 1410 | 9760 nM | 5460 | 2790 | 1250 | 1300 | 1280 | 2990 | 247 | 1570 | 82.7 | 2290 | 1220 | 1350
7 | O=C1c2ccccc2C(=O)c2sc(Nc3ccc(Cl)c(Cl)c3)nc21 | 9860 | 9470 nM | 12400 | 10100 | 29400 | 3170 nM | 11500 | 16200 nM | 6370 | 4660 | – | – | – | – | – | – | – | – | – | –
8 | CC[C@@]1(OC(=O)CN)C(=O)OCc2c1cc1n(c2=O)Cc2cc3c(N)c4c(cc3nc2-1)OCO4 | 13.9 | 889 nM and 221 nM | 158 | 342 | – | 104 nM and 15.2 nM | 159 | 109 nM and 27.9 nM | 146 | 146 | < 0.1 | 12.4 | 4.66 | 18 | < 0.1 | < 0.1 | < 0.1 | < 0.1 | < 0.1 | 1.15
9 | CC[C@H](C)[C@H](NC(=O)C12CC(NC(C)=O)(C1)C2)C(=O)N(C)[C@H](C[C@@H](OC(C)=O)c1nc(C(=O)N[C@@H](Cc2ccccc2)C[C@H](C)C(=O)OC)cs1)C(C)C | 1880 | > 16700 nM | > 16700 | > 16700 | > 5250 | > 16700 nM | > 16700 | > 16700 nM | > 16700 | 450 | 130 | – | 359 | 502 | 360 | 1130 | 33.6 | > 7530 | 748 | 55.1
10 | CC[O-].CC[O-].O=C([CH-]C(=O)c1ccccc1)c1ccccc1.O=C([CH-]C(=O)c1ccccc1)c1ccccc1.[Ti+4] | > 100000 | > 100000 nM | > 100000 | > 100000 | > 100000 | > 100000 nM | > 100000 | > 100000 nM | > 100000 | > 100000 | > 100000 | > 100000 | 39100 | > 100000 | > 100000 | > 100000 | 62400 | 25200 | 46500 | > 100000
11 | Brc1ccc(Br)nn1 | 2820 | 3700 nM | 2630 | 4920 | 18600 | 3260 nM | 3520 | 5570 nM | 5480 | 928 | 1390 | 1750 | 1320 | 2000 | 5380 | 1800 | 439 | 2280 | 1690 | 243
12 | O=C(NO)c1cnc(N2CCN(S(=O)(=O)c3ccc4ccccc4c3)CC2)nc1 | 5750 | 12600 nM | 208 | 780 | 268 | 595 nM | > 90700 | 2550 nM | > 41300 | 104 | 46.8 | 22.4 | 39.9 | 162 | 53.2 | 72.3 | 38.7 | 157 | 42.4 | 20
13 | OC(c1ccccc1)c1c(-c2ccccc2)oc(-c2ccccc2)c1C(O)c1ccccc1 (configuration not stated) | 21900 | 25400 nM | 21500 | 28100 | 29300 | 19100 nM | 62900 | 21900 nM | 22000 | 11100 | – | – | – | – | – | – | – | – | – | –
14 | CCN1C(=O)N(CC)C2C1NN=c1s/c(=C\c3ccccc3)c(=O)n12 (configuration not stated) | > 100000 | > 100000 nM | > 100000 | > 100000 | > 100000 | > 100000 nM | > 49200 | > 100000 nM | > 100000 | – | 104 | 1090 | 74.8 | 298 | 66.3 | 199 | 53.1 | 27600 | 420 | 110
